Here are results for 30 compounds from patent US20240158370A1, “CK1 alpha AND DUAL CK1 alpha / GSPT1 DEGRADING COMPOUNDS” (Innovo Therapeutics, Inc., priority 2022, published 2024).

For one test, the target named is T1, CK1α (Homo sapiens, UniProt P48729+Q96SW2).
T1 construct: CSNK1A1-HiBit KI HEK293(LgBit) Cells; host or cells: HEK293(LgBit) knock-in cells
Briefly: HiBiT degradation assay, CK1α, Procedure A. The class given is cell-based. Particulars: six hours incubation. In a few lines: (§1)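 Cells in DMEM + 10% FBS were treated with compound in a ten-point dose response from 10 μM to 0.005 μM (0.1% DMSO) for six hours at 37° C. Lysis with Nano-Glo HiBiT detection reagent followed, with luminescence read. DC50 and Ymin came from a 4-parameter fit.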
Background: HiBiT is a short tag that completes a luciferase, so light tracks the accessible tagged protein.

In the next test the target is GSPT1 (Homo sapiens, UniProt P15170+Q96SW2). Briefly: HiBiT degradation assay, GSPT1, Procedure A. Particulars: six hours incubation. The class given is cell-based. More on the design: HiBit-GSPT1 KI HEK293(LgBit) Cells; host or cells: HEK293(LgBit) knock-in cells. Summed up:
as §1

T1 sequence (P48729 whole entry): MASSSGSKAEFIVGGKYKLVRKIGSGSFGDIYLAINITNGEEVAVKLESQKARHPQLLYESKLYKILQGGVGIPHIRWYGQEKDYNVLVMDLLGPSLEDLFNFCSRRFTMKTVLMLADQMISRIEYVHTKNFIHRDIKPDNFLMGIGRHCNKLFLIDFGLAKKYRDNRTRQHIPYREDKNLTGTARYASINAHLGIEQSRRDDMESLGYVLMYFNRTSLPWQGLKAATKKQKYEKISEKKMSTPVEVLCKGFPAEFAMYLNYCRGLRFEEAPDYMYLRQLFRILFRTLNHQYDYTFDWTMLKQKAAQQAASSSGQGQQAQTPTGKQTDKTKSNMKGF
T1 sequence (Q96SW2 whole entry): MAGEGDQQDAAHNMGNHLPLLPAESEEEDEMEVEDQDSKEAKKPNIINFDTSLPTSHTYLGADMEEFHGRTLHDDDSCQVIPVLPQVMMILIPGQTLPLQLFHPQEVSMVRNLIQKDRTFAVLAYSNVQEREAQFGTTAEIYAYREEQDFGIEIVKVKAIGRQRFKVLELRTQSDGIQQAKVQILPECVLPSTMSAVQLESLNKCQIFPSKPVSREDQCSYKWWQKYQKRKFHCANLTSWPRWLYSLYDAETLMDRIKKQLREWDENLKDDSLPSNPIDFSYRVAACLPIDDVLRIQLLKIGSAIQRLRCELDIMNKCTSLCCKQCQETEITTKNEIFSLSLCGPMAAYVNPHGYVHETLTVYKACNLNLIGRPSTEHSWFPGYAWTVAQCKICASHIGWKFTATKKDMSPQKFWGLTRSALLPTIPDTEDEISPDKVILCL
T1 sequence (Q16531 whole entry partner): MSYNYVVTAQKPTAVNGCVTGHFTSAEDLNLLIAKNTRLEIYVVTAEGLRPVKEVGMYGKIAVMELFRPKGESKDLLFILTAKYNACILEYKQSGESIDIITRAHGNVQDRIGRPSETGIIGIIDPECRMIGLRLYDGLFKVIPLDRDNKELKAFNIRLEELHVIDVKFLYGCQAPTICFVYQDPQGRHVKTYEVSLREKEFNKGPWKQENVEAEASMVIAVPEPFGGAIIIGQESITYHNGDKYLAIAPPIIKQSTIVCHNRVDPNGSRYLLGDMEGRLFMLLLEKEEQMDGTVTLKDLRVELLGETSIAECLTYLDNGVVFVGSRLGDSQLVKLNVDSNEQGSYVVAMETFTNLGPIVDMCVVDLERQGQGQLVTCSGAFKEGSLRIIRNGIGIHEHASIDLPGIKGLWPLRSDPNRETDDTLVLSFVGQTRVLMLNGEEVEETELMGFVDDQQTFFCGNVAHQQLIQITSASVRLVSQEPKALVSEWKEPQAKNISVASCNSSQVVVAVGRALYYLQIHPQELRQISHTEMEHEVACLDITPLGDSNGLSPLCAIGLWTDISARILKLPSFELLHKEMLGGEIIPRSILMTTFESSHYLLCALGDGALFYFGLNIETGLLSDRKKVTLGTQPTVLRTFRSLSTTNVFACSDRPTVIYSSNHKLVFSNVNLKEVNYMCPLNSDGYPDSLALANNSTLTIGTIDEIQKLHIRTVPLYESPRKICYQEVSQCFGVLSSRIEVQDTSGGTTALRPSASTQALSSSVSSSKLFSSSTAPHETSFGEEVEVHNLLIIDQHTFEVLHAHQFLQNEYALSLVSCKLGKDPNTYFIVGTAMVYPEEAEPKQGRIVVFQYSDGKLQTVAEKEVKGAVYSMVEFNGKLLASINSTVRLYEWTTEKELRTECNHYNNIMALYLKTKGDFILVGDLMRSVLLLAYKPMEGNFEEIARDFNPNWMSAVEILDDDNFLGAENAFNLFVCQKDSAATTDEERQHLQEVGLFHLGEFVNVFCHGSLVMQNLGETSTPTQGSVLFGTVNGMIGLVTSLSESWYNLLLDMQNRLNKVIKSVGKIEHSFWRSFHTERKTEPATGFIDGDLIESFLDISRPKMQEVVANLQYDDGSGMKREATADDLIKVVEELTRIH
Sequence of GSPT1 (P15170 whole entry): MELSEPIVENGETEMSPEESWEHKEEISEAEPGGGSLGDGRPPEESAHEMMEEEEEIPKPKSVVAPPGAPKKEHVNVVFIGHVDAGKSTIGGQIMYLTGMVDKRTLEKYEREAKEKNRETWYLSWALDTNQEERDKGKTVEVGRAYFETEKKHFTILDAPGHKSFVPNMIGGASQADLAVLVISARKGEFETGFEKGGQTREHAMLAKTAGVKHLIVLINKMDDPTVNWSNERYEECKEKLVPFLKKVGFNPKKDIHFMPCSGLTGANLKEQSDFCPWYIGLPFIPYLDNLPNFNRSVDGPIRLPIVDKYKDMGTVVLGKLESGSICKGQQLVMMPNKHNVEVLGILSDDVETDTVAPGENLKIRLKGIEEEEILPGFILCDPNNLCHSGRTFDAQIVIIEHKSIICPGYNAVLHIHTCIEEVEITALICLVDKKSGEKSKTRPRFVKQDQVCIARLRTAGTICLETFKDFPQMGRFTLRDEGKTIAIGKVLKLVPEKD
Sequence of GSPT1 (Q96SW2 whole entry): as the sequence (Q96SW2 whole entry) above
Sequence of GSPT1 (Q16531 whole entry partner): as the sequence (Q16531 whole entry partner) above

In general, DC50 refers to the midpoint of the concentration-degradation curve. As to `COc1ccc(-c2c(-c3ccc4c(c3)CN(C3CCC(=O)NC3=O)C4=O)cnn2C)cc1OCc1ccccc1` (stereo not drawn) [Example 113], at CK1α, the “CK1α Ymin” value was “D (D = >10- 25% remaining)” and the 50% degradation concentration (DC50) was less than 25 nM. Also, at GSPT1, the DC50 was not below 25 nM and the “GSPT1 Ymin” value was “F (F = >75-100% remaining)”.

Turning to `Cn1ncc(-c2ccc3c(c2)CN(C2CCC(=O)NC2=O)C3=O)c1-c1cccc2c1CCC2` (stereo not drawn) [Example 114], at CK1α, the “CK1α Ymin” value is “E (E = >25-75% remaining)” and the DC50 is less than 25 nM. Also, at GSPT1, the DC50 was not below 25 nM and the “GSPT1 Ymin” value is “F (F = >75-100% remaining)”.

Regarding `Cn1ncc(-c2ccc3c(c2)CN(C2CCC(=O)NC2=O)C3=O)c1-c1ccccc1C1CC1` (stereo not drawn) [Example 115], at CK1α, the “CK1α Ymin” value is on record as “E (E = >25-75% remaining)” and the DC50 is less than 25 nM. At GSPT1, the DC50 is not below 25 nM and the “GSPT1 Ymin” value is on record as “F (F = >75-100% remaining)”.

Consider `Cn1ncc(-c2ccc3c(c2)CN(C2CCC(=O)NC2=O)C3=O)c1C1CC1` (stereo not drawn) [Example 116], for which, on CK1α, the “CK1α Ymin” value is “E (E = >25-75% remaining)” and the DC50 is not below 25 nM. For the same compound, at GSPT1, the DC50 was not below 25 nM and the “GSPT1 Ymin” value is “F (F = >75-100% remaining)”.

On to `Cn1c(C2CC2)nc(-c2ccc3c(c2)CN(C2CCC(=O)NC2=O)C3=O)c1-c1cncnc1` (stereo not drawn) [Example 117, 3-(5-(2-cyclopropyl-1-methyl-5-(pyrimidin-5-yl)-1H-imidazol-4-yl)-1-oxoisoindolin-2-yl)piperidine-2,6-dione], for which, on CK1α, the “CK1α Ymin” value is reported as “C (C = 0-10% remaining)” and the DC50 was less than 25 nM. Further, at GSPT1, the DC50 was not below 25 nM and the “GSPT1 Ymin” value was “F (F = >75-100% remaining)”.

Regarding `O=C1CCC(N2Cc3cc(-c4c[nH]nc4-c4ccccn4)ccc3C2=O)C(=O)N1` (stereo not drawn) [Example 118, 3-(1-oxo-5-(3-(pyridin-2-yl)-1H-pyrazol-4-yl)isoindolin-2-yl)piperidine-2,6-dione], on CK1α, the “CK1α Ymin” value is “E (E = >25-75% remaining)” and the DC50 was not below 25 nM. Besides, on GSPT1, the DC50 was not below 25 nM and the “GSPT1 Ymin” value is “F (F = >75-100% remaining)”.

As for `Cn1ncc(-c2ccc3c(c2)CN(C2CCC(=O)NC2=O)C3=O)c1-c1ccc(Cl)c(C#N)c1` (stereo not drawn) [Example 119], at CK1α, the “CK1α Ymin” value is given as “E (E = >25-75% remaining)” and the DC50 is not below 25 nM. Also, on GSPT1, the DC50 is not below 25 nM and the “GSPT1 Ymin” value is “F (F = >75-100% remaining)”.

Turning to `Cn1ncc(-c2ccc3c(c2)CN(C2CCC(=O)NC2=O)C3=O)c1-c1cc(F)ccc1Cl` (stereo not drawn) [Example 120], at CK1α, the “CK1α Ymin” value is “E (E = >25-75% remaining)” and the DC50 was not below 25 nM. At GSPT1, the DC50 was not below 25 nM and the “GSPT1 Ymin” value is “F (F = >75-100% remaining)”.

`CN(C)C(=O)c1ccc(-c2c(-c3ccc4c(c3)CN(C3CCC(=O)NC3=O)C4=O)cnn2C)cc1` (stereo not drawn) [Example 121]: on CK1α, the “CK1α Ymin” value is given as “C (C = 0-10% remaining)” and the DC50 was not below 25 nM. Also, on GSPT1, the DC50 was not below 25 nM and the “GSPT1 Ymin” value was “F (F = >75-100% remaining)”.

In the case of `CNC(=O)c1cccc(-c2c(-c3ccc4c(c3)CN(C3CCC(=O)NC3=O)C4=O)cnn2C)c1` (stereo not drawn) [Example 122], at CK1α, the “CK1α Ymin” value is “E (E = >25-75% remaining)” and the DC50 is not below 25 nM. Further, on GSPT1, the DC50 is not below 25 nM and the “GSPT1 Ymin” value was “F (F = >75-100% remaining)”.

Consider `Cn1ncc(-c2ccc3c(c2)CN(C2CCC(=O)NC2=O)C3=O)c1-c1cccc(C#N)c1` (stereo not drawn) [Example 123], for which, at CK1α, the “CK1α Ymin” value is reported as “E (E = >25-75% remaining)” and the DC50 is less than 25 nM. Besides, at GSPT1, the DC50 was not below 25 nM and the “GSPT1 Ymin” value is “F (F = >75-100% remaining)”.

Consider `Cn1ncc(-c2ccc3c(c2)CN(C2CCC(=O)NC2=O)C3=O)c1-c1ccc(N)cc1` (stereo not drawn) [Example 124], for which, on CK1α, the “CK1α Ymin” value is reported as “C (C = 0-10% remaining)” and the DC50 is less than 25 nM. On GSPT1, the DC50 is not below 25 nM and the “GSPT1 Ymin” value is “F (F = >75-100% remaining)”.

Consider `Cc1c(F)cccc1-c1c(-c2ccc3c(c2)CN(C2CCC(=O)NC2=O)C3=O)cnn1C` (stereo not drawn) [Example 125], for which, at CK1α, the “CK1α Ymin” value was “E (E = >25-75% remaining)” and the DC50 is less than 25 nM. Also, at GSPT1, the DC50 is not below 25 nM and the “GSPT1 Ymin” value is on record as “F (F = >75-100% remaining)”.

Consider `Cc1ccsc1-c1c(-c2ccc3c(c2)CN(C2CCC(=O)NC2=O)C3=O)cnn1C` (stereo not drawn) [Example 126], for which, on CK1α, the “CK1α Ymin” value was “D (D = >10- 25% remaining)” and the DC50 was less than 25 nM. For the same compound, on GSPT1, the DC50 is not below 25 nM and the “GSPT1 Ymin” value is reported as “F (F = >75-100% remaining)”.

Take `Cn1ncc(-c2ccc3c(c2)CN(C2CCC(=O)NC2=O)C3=O)c1-c1ccccc1N` (stereo not drawn) [Example 127]: at CK1α, the “CK1α Ymin” value is on record as “E (E = >25-75% remaining)” and the DC50 is less than 25 nM. In addition, on GSPT1, the half-maximal degradation concentration (DC50) was not below 25 nM and the “GSPT1 Ymin” value is listed as “F (F = >75-100% remaining)”.

With `Cc1csc(-c2c(-c3ccc4c(c3)CN(C3CCC(=O)NC3=O)C4=O)cnn2C)c1` (stereo not drawn) [Example 128], on CK1α, the “CK1α Ymin” value was “D (D = >10- 25% remaining)” and the DC50 was less than 25 nM. For the same compound, on GSPT1, the DC50 is not below 25 nM and the “GSPT1 Ymin” value is “F (F = >75-100% remaining)”.

Consider `Cn1ncc(-c2ccc3c(c2)CN(C2CCC(=O)NC2=O)C3=O)c1-c1cccc(Cl)c1` (stereo not drawn) [Example 129], for which, at CK1α, the “CK1α Ymin” value was “E (E = >25-75% remaining)” and the DC50 is less than 25 nM. Besides, on GSPT1, the DC50 was not below 25 nM and the “GSPT1 Ymin” value was “F (F = >75-100% remaining)”.

With `Cn1ncc(-c2ccc3c(c2)CN(C2CCC(=O)NC2=O)C3=O)c1-c1ccc(F)cc1F` (stereo not drawn) [Example 130], at CK1α, the “CK1α Ymin” value was “E (E = >25-75% remaining)” and the DC50 was less than 25 nM. At GSPT1, the DC50 was not below 25 nM and the “GSPT1 Ymin” value was “F (F = >75-100% remaining)”.

In the case of `Cn1ncc(-c2ccc3c(c2)CN(C2CCC(=O)NC2=O)C3=O)c1-c1ccsc1Cl` (stereo not drawn) [Example 131], at CK1α, the “CK1α Ymin” value is given as “E (E = >25-75% remaining)” and the DC50 is less than 25 nM. At GSPT1, the DC50 was not below 25 nM and the “GSPT1 Ymin” value is “F (F = >75-100% remaining)”.

For the compound `Cn1ncc(-c2ccc3c(c2)CN(C2CCC(=O)NC2=O)C3=O)c1-c1ccccc1Cl` (stereo not drawn) [Example 132], at CK1α, the “CK1α Ymin” value is “E (E = >25-75% remaining)” and the DC50 was less than 25 nM. Further, at GSPT1, the DC50 was not below 25 nM and the “GSPT1 Ymin” value was “F (F = >75-100% remaining)”.

As for `Cn1ncc(-c2ccc3c(c2)CN(C2CCC(=O)NC2=O)C3=O)c1-c1ccc(Oc2cccnc2)cc1` (stereo not drawn) [Example 133], at CK1α, the “CK1α Ymin” value is reported as “E (E = >25-75% remaining)” and the DC50 was not below 25 nM. At GSPT1, the DC50 is not below 25 nM and the “GSPT1 Ymin” value is listed as “F (F = >75-100% remaining)”.

As to `Cn1ncc(-c2ccc3c(c2)CN(C2CCC(=O)NC2=O)C3=O)c1-c1ccc(F)c(F)c1` (stereo not drawn) [Example 134], at CK1α, the “CK1α Ymin” value is “E (E = >25-75% remaining)” and the DC50 was less than 25 nM. For the same compound, at GSPT1, the DC50 was not below 25 nM and the “GSPT1 Ymin” value is recorded as “F (F = >75-100% remaining)”.

As to `Cn1ncc(-c2ccc3c(c2)CN(C2CCC(=O)NC2=O)C3=O)c1-c1cccc(F)c1` (stereo not drawn) [Example 135], on CK1α, the “CK1α Ymin” value was “E (E = >25-75% remaining)” and the DC50 was less than 25 nM. Further, at GSPT1, the DC50 is not below 25 nM and the “GSPT1 Ymin” value is given as “F (F = >75-100% remaining)”.

Regarding `Cn1ncc(-c2ccc3c(c2)CN(C2CCC(=O)NC2=O)C3=O)c1-c1ccc2ccccc2c1` (stereo not drawn) [Example 136], at CK1α, the “CK1α Ymin” value was “D (D = >10- 25% remaining)” and the DC50 was less than 25 nM. Moreover, on GSPT1, the DC50 was not below 25 nM and the “GSPT1 Ymin” value is “F (F = >75-100% remaining)”.

Take `COc1ccc(C)cc1-c1c(-c2ccc3c(c2)CN(C2CCC(=O)NC2=O)C3=O)cnn1C` (stereo not drawn) [Example 137]: at CK1α, the “CK1α Ymin” value is listed as “E (E = >25-75% remaining)” and the DC50 is less than 25 nM. On GSPT1, the DC50 was less than 25 nM and the “GSPT1 Ymin” value is given as “F (F = >75-100% remaining)”.

As for `Cn1ncc(-c2ccc3c(c2)CN(C2CCC(=O)NC2=O)C3=O)c1-c1cccc(C(N)=O)c1` (stereo not drawn) [Example 138], at CK1α, the “CK1α Ymin” value was “E (E = >25-75% remaining)” and the DC50 is not below 25 nM. Also, on GSPT1, the DC50 is less than 25 nM and the “GSPT1 Ymin” value is “F (F = >75-100% remaining)”.

On to `Cn1ncc(-c2ccc3c(c2)CN(C2CCC(=O)NC2=O)C3=O)c1-c1cc(F)cc(F)c1` (stereo not drawn) [Example 139], for which, on CK1α, the “CK1α Ymin” value is recorded as “E (E = >25-75% remaining)” and the DC50 is not below 25 nM. In addition, at GSPT1, the DC50 is less than 25 nM and the “GSPT1 Ymin” value is reported as “F (F = >75-100% remaining)”.

In the case of `CN(C)C(=O)c1cccc(-c2c(-c3ccc4c(c3)CN(C3CCC(=O)NC3=O)C4=O)cnn2C)c1` (stereo not drawn) [Example 140], at CK1α, the “CK1α Ymin” value is “E (E = >25-75% remaining)” and the DC50 is not below 25 nM. At GSPT1, the DC50 was less than 25 nM and the “GSPT1 Ymin” value was “E (E = >25-75% remaining)”.

Take `COCc1ccc(-c2c(-c3ccc4c(c3)CN(C3CCC(=O)NC3=O)C4=O)cnn2C)cc1` (stereo not drawn) [Example 141]: on CK1α, the “CK1α Ymin” value was “E (E = >25-75% remaining)” and the DC50 is less than 25 nM. Also, at GSPT1, the DC50 was not below 25 nM and the “GSPT1 Ymin” value is listed as “F (F = >75-100% remaining)”.

`Cn1ncc(-c2ccc3c(c2)CN(C2CCC(=O)NC2=O)C3=O)c1-c1ccc(O)cc1` (stereo not drawn) [Example 142]: at CK1α, the “CK1α Ymin” value is reported as “D (D = >10- 25% remaining)” and the DC50 was less than 25 nM. Further, at GSPT1, the DC50 is not below 25 nM and the “GSPT1 Ymin” value was “F (F = >75-100% remaining)”.
